In general, IC50 refers to the concentration that gives 50% inhibition. Usually GI50 stands for the concentration that inhibits growth by half.

The record followed here is ChEMBL document CHEMBL5244235, “Diarylpentanoids with antitumor activity: A critical review of structure-activity relationship studies” (Eur J Med Chem, 2020).

Data set [1] deals with A549. The data set is described as follows: Antiproliferative activity against human A549 cells assessed as cell viability by WST-1 assay. Format: functional, cell-based. Background: Formazan colour is commonly taken as a measure of viable cells.
The test system of data set [2] is MV4-11. The data set is described as follows: Antiproliferative activity against human MV4-11 cells assessed as cell viability by WST-1 assay. The format is functional, cell-based.
In data set [3] the test system is MG-63. The data set is described as follows: Antiproliferative activity against human MG-63 cells assessed as cell viability by WST-1 assay. Format: functional, cell-based.
The test system of data set [4] is NCI-H23. The data set is described as follows: Antiproliferative activity against human NCI-H23 cells assessed as cell viability by WST-1 assay. The format is functional, cell-based.
Data set [5] relates to MDA-MB-231. The data set is described as follows: Antiproliferative activity against human MDA-MB-231 cells assessed as cell viability by WST-1 assay. The format is functional, cell-based.
The test system of data set [6] is MDA-MB-468. The data set is described as follows: Antiproliferative activity against human MDA-MB-468 cells assessed as cell viability by WST-1 assay. The format is functional, cell-based.
Data set [7] relates to MDA-MB-231. The data set is described as follows: Growth inhibition of human MDA-MB-231 cells measured after 72 hrs by microplate reader analysis. Format: functional.
Data set [8] has as its system RPMI-7951. The data set is described as follows: Growth inhibition of human RPMI-7951 cells measured after 72 hrs by microplate reader analysis. Format: functional, cell-based. To be noted: RPMI-7951, time 72 hrs.
A short description of data set [9]: Cytotoxicity against HUVEC cells assessed as cell growth inhibition by anti-angiogenisis screening assay. The format is toxicity, cell-based. As to conditions: human.
A short description of data set [10]: Cytotoxicity against mouse MS-1 cells assessed as cell growth inhibition by anti-angiogenisis screening assay. Format: toxicity, cell-based.
The nature of data set [11]: Cytotoxicity against mouse SVR cells assessed as cell growth inhibition by anti-angiogenisis screening assay. Format: toxicity, cell-based.
In data set [12] the test system is HCT-116. The data set is described as follows: Antiproliferative activity against human HCT116 cells assessed as cell growth inhibition measured after 96 hrs. Format: functional, cell-based. As to conditions: HCT-116, 96 h.
Data set [13] relates to GCIY. The data set is described as follows: Antiproliferative activity against human GCIY cells assessed as cell growth inhibition measured after 72 hrs. The format is functional, cell-based.
Data set [14] is described as follows: Antiproliferative activity against human SH-10-TC cells assessed as cell growth inhibition measured after 72 hrs. Format: functional, cell-based.
The subject of data set [15] is HCT-116. The data set is described as follows: Antiproliferative activity against human HCT-116 cells assessed as cell growth inhibition measured after 72 hrs. The format is functional, cell-based. As to conditions: HCT-116, 72 h.
In data set [16] the test system is DLD-1. The data set is described as follows: Antiproliferative activity against human DLD-1 cells assessed as cell growth inhibition measured after 72 hrs. The format is functional, cell-based. As to conditions: DLD-1, 72 h.
Data set [17] concerns A549. The data set is described as follows: Antiproliferative activity against human A549 cells assessed as cell growth inhibition measured after 72 hrs. The format is functional, cell-based. To be noted: A549, 72 h.
The test system of data set [18] is ACHN. The data set is described as follows: Antiproliferative activity against human ACHN cells assessed as cell growth inhibition measured after 72 hrs. Format: functional, cell-based.
In data set [19] the test system is Huh-7. The data set is described as follows: Antiproliferative activity against human Huh-7 cells assessed as cell growth inhibition measured after 72 hrs. As to conditions: Huh-7, 72 h. The format is functional, cell-based.
A short description of data set [20]: Antiproliferative activity against human OVK18 cells assessed as cell growth inhibition measured after 72 hrs. The format is functional, cell-based. To be noted: OVK18, 72 h.
Data set [21] concerns MCF7. The data set is described as follows: Antiproliferative activity against human MCF7 cells assessed as cell growth inhibition measured after 72 hrs. The format is functional, cell-based. To be noted: MCF7, 72 h.
The test system of data set [22] is A-431. The data set is described as follows: Antiproliferative activity against human A-431 cells assessed as cell growth inhibition measured after 72 hrs. Format: functional, cell-based. To be noted: A-431, 72 h.
Data set [23] concerns HuCCT-1. The data set is described as follows: Antiproliferative activity against human HuCCT-1 cells assessed as cell growth inhibition measured after 72 hrs. Format: functional, cell-based. To be noted: HuCCT-1, 72 h.
Data set [24] has as its system 8505C. The data set is described as follows: Antiproliferative activity against human 8505C cells assessed as cell growth inhibition measured after 72 hrs. The format is functional, cell-based.
Data set [25] deals with G-361. The data set is described as follows: Antiproliferative activity against human G-361 cells assessed as cell growth inhibition measured after 72 hrs. The format is functional, cell-based. To be noted: G-361, 72 h.
For data set [26], the system named is PC-3. The data set is described as follows: Antiproliferative activity against human PC-3 cells assessed as cell growth inhibition measured after 72 hrs. The format is functional, cell-based. As to conditions: PC-3, 72 h.
The nature of data set [27]: Antiproliferative activity against human PK-1 cells assessed as cell growth inhibition measured after 72 hrs. To be noted: PK-1, 72 h. Format: functional, cell-based.
Data set [28] deals with HeLa. The data set is described as follows: Antiproliferative activity against human HeLa cells assessed as cell growth inhibition measured after 24 hrs by MTT assay. Format: functional, cell-based.
For data set [29], the system named is THP-1. The data set is described as follows: Antiproliferative activity against human THP-1 cells assessed as cell growth inhibition measured after 24 hrs by MTT assay. The format is functional, cell-based. To be noted: THP-1, 24 h.
Data set [30] relates to HepG2. The data set is described as follows: Antiproliferative activity against human HepG2 cells assessed as cell growth inhibition measured after 24 hrs by MTT assay. As to conditions: HepG2, 24 h. The format is functional, cell-based.
The subject of data set [31] is K562. The data set is described as follows: Antiproliferative activity against human K562 cells assessed as cell growth inhibition measured after 24 hrs by MTT assay. The format is functional, cell-based. As to conditions: K562, 24 h.

`COc1cc(/C=C2\CN(C)C/C(=C\c3cc(OC)c(OC)c(OC)c3)C2=O)cc(OC)c1OC`: the IC50 in data set [1], in [2], in [3], in data set [4], in data set [5] and in data set [6] was 390 nM in each case.
On to `O=C1/C(=C/c2ccccc2Cl)CNC/C1=C\c1ccccc1Cl`, for which the IC50 in data set [1], in data set [2], in [3], in [4], in data set [5] and in data set [6] was 390 nM each time.
As to `O=C1/C(=C/c2ccccc2Br)CNC/C1=C\c1ccccc1Br`, the IC50 in data set [1], in data set [2], in [3], in [4], in [5] and in [6] was 390 nM each time.
Consider `O=C(/C=C/c1ccc(O)cc1)/C=C/c1ccc(O)cc1`, for which the GI50 is 1000 nM in data set [7]; 2300 nM in data set [8]; 3200 nM in data set [9]; 3200 nM in data set [10]; 3200 nM in data set [11].
With `COc1cccc(/C=C2\CNC/C(=C\c3cccc(OC)c3OC)C2=O)c1OC`, the IC50 in data set [1], in data set [2], in data set [3], in [4], in data set [5] and in data set [6] was 390 nM throughout.
For `O=C(/C=C/c1cccc(O)c1)/C=C/c1cccc(O)c1`, the GI50 came to 1000 nM in data set [7]; 2300 nM in [8]; 3200 nM in data set [9]; 3200 nM in data set [10]; 3200 nM in data set [11].
For `COc1cc(/C=C2\CN(C(=O)C(C)C)C/C(=C\c3cc(OC)c(OC)c(OC)c3)C2=O)cc(OC)c1OC`, the IC50 in data set [1], in [2], in [3], in data set [4], in [5] and in data set [6] was 390 nM in each case.
Consider `COc1ccc(/C=C/C(=O)/C=C/c2ccc(OC)c(OC)c2)cc1OC`, for which, in [12], the IC50 is 1500 nM.
For the molecule `COc1ccc(/C=C2\CCC/C(=C\c3ccc(OC)c(OC)c3)C2=O)cc1OC`, the IC50 in data set [13], in data set [14], in [15], in data set [16], in [17] and in data set [18] was 10000 nM throughout. The IC50 in data set [19], in data set [20], in data set [21], in [22], in data set [23] and in data set [24] was 10000 nM each time. The half-maximal inhibitory concentration (IC50) in data set [25], in data set [26] and in [27] was 10000 nM throughout.
On to `COc1cc(/C=C/C(=O)/C=C/c2cc(OC)c(OC)c(OC)c2)cc(OC)c1OC`, for which the IC50 in data set [12] was determined as 250 nM.
Consider `O=C1/C(=C/c2cccc(/N=C/c3ccc(O)cc3O)c2)CCC/C1=C\c1cccc(/N=C/c2ccc(O)cc2O)c1`, for which the IC50 in data set [28], in [29], in data set [30] and in data set [31] was less than 5000 nM in each case.
